Among the data in patent US8846704B2, “Thiopyrimidine-based compounds and uses thereof” (YM Biosciences Austraila Pty Ltd, priority 2007, dated 2014) are GI50 and IC50 values, retold here.

What all share (assay type): cell-based
The target of test [1] is T1, BaF3 TELJAK2 cells (BafT_J2) (Homo sapiens, UniProt O60674).
T1 construct: fused on or other part: TEL (ETV6) N-terminal part, coding nucleotides 1-487, serves as the oligomerising partner; It is fused through a Sal I site to the JAK2 kinase domain and expressed from pTRE2 in BaF3 cells bearing pTET-off; P41212 (Transcription factor ETV6)
Kind of test: Cellular screening, BaF3 TEL:JAK2 cells, Alamar Blue. The following applies: 40 hr, read-out: BafT_J2 IC50_nM. The procedure, abridged: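 Tet-off BaF3 cells carrying a TEL (nt 1-487)–JAK2 kinase-domain fusion, grown factor-independently in DMEM with 10% Tet-approved FBS without WEHI 3B medium. Compounds were diluted to 20 μM in screening plates, and cells (50,000–200,000 cell/mL at 1.1×) were incubated 40 hr at 37 °C, 5% CO2. Alamar Blue was then added for 4-6 hours; read at 544 nm.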
A general note: Alamar Blue is a resazurin reagent that responds to reducing activity.

In another test the target is T2, BaF3 TELJAK3 cells (Homo sapiens, UniProt P52333).
T2 construct: fused on or other part: TEL (ETV6) N-terminal part, coding nucleotides 1-487, serves as the oligomerising partner; It is fused through a Sal I site to the JAK3 kinase domain and expressed from pTRE2 in BaF3 cells bearing pTET-off; P41212 (Transcription factor ETV6)
T2 sequence (P52333 1-1124): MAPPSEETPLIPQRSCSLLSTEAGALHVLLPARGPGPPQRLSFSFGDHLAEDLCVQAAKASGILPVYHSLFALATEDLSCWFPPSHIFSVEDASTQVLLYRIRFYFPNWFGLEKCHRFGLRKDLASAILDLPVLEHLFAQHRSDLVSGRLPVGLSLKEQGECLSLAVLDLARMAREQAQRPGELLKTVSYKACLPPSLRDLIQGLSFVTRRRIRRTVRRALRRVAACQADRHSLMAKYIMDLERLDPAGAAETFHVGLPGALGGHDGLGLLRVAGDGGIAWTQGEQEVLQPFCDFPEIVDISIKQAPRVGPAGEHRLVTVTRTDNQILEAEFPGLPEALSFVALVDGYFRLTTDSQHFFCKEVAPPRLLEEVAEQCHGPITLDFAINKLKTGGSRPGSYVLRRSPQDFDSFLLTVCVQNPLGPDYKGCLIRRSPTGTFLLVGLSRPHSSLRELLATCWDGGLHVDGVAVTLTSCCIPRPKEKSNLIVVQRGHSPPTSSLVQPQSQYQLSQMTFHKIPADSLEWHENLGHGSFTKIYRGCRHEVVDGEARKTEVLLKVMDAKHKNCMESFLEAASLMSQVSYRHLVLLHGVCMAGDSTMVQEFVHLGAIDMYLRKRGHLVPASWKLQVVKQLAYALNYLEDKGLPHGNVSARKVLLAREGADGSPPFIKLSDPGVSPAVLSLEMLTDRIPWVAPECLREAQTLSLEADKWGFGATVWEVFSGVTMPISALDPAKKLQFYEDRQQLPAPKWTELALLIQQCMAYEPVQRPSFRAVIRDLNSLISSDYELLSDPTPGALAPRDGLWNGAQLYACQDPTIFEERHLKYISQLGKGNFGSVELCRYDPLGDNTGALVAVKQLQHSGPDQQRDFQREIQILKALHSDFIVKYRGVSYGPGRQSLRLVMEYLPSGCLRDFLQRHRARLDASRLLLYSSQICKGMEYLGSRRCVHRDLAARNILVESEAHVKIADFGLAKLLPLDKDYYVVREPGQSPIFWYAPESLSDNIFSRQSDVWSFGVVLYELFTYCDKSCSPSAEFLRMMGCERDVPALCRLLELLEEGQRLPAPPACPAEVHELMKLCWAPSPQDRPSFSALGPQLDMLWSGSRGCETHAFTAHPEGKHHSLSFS
Kind of test: Cellular screening, BaF3 TEL:JAK3 cells, Alamar Blue. The note with it: 40 hr, read-out: BafT_J3 IC50_nM. The procedure, abridged: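 Alamar Blue signal at 544 nm, developed for 4–6 h, measured viability after 40 h of compound treatment at 37 °C, 5% CO2. Cells were growth-factor-independent BaF3 lines transfected with a TEL/JAK3 kinase-domain fusion under tet-off control. They were cultured in DMEM, 10% Tet-approved FBS, lacking WEHI 3B conditioned medium.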

A further test relates to CTLL2. Kind of test: Cellular screening, CTLL2 cells, Alamar Blue. The note with it: Mus musculus, CTLL-2, read-out: CTLL2 IC50_nM. The procedure, abridged: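 Viability is read with Alamar Blue at 544 nm, the dye added for the final 4-6 hours. Compounds were incubated for 40 hr with CTLL2 cells taken from late-log-phase culture, at 37° C in 5% CO2.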

T1 sequence (O60674 whole entry, change not shown, the tested form may be a part): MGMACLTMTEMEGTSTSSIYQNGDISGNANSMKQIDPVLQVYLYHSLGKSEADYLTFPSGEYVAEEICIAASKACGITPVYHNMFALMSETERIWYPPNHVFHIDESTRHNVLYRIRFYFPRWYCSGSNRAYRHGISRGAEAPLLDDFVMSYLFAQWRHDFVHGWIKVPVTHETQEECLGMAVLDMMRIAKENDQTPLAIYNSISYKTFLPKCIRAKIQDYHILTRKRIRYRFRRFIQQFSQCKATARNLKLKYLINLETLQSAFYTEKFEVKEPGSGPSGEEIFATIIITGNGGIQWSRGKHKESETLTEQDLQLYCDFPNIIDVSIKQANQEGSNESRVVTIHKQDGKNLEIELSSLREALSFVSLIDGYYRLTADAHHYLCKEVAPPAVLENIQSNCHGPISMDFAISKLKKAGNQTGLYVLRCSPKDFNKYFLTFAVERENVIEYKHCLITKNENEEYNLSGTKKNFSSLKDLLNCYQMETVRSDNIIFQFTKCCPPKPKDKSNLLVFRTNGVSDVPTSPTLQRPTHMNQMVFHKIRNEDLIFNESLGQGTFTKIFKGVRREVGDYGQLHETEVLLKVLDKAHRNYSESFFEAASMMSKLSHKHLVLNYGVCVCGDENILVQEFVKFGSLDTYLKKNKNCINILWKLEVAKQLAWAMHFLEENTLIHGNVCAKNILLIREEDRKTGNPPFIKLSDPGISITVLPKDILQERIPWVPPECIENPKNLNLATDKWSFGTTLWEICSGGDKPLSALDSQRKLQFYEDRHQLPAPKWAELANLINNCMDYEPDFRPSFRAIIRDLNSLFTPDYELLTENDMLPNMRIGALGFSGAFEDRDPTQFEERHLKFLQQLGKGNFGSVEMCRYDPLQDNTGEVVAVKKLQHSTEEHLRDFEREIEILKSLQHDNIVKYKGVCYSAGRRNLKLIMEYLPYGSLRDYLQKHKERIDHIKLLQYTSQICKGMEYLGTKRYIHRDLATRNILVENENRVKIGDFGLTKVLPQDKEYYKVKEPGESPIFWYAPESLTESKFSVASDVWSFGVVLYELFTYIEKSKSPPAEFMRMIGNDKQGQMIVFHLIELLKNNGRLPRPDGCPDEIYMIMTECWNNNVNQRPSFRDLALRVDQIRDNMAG

As to `C=CC(=O)Nc1cccc(Sc2ccnc(Nc3ccc(OC)cc3)n2)c1` [Compound 120, N-(3-(2-(4-methoxyphenylao)pyrimidin-4-ylthio)phenyl)acrylamide], the GI50 in test [1] is < 20 µM; at BaF3 TELJAK3 cells, < 1 µM. In the test on CTLL2, the IC50 is < 5 µM.
Take `Cc1cnc(Nc2ccc(N3CCOCC3)cc2)nc1Sc1ccc2c(c1)CCCN2` [Compound 166, 5-methyl-N-(4-morpholinophenyl)-4-(1,2,3,4-tetrahydroquinolin-6-ylthio)pyrimidin-2-ae]: the results for the GI50 (in test [1]; on BaF3 TELJAK3 cells) were < 5 µM and < 20 µM, respectively. The IC50 in the test with CTLL2 was < 20 µM.
Take `C=CC(=O)Nc1ccc(Sc2ccnc(Nc3cccc(S(=O)(=O)N4CCN(C)CC4)c3)n2)cc1` [Compound 365, N-(4-(2-(3-(4-methylpiperazin-1-ylsulfonyl)phenylao)pyrimidin-4-ylthio)phenyl)acrylamide]: the GI50 in test [1] was < 20 µM; on BaF3 TELJAK3 cells, < 5 µM. In the test on CTLL2, the IC50 is < 20 µM.
For the compound `C=CC(=O)Nc1ccc(Sc2ccnc(Nc3ccc(OC)cc3)n2)cc1` [Compound 74, N-(4-(2-(4-methoxyphenylao)pyrimidin-4-ylthio)phenyl)acrylamide], the figures for the GI50 (in test [1]; at BaF3 TELJAK3 cells) were > 20 µM and < 1 µM, respectively. For the same compound, the IC50 with CTLL2 is < 5 µM.
As for `C=CC(=O)Nc1ccc(Sc2ccnc(Nc3cccc(S(=O)(=O)NCc4ccccc4)c3)n2)cc1` [Compound 366, N-(4-(2-(3-(N-benzylsulfamoyl)phenylao)pyrimidin-4-ylthio)phenyl)acrylamide], the GI50 was < 20 µM in test [1] and < 5 µM on BaF3 TELJAK3 cells. Besides, the IC50 in the test with CTLL2 was < 5 µM.
`C=CC(=O)Nc1ccc(Sc2ccnc(Nc3cccc(C#N)c3)n2)cc1` [Compound 118, N-(4-(2-(3-cyanophenylao)pyrimidin-4-ylthio)phenyl)acrylamide]: the GI50 (in test [1]; at BaF3 TELJAK3 cells) was < 5 µM each time. Also, in the test with CTLL2, the IC50 is > 20 µM.
On to `C=CC(=O)Nc1ccc(Sc2nc(Nc3cccc(OC(F)(F)F)c3)ncc2C)cc1` [Compound 289, N-(4-(5-methyl-2-(3-(trifluoromethoxy)phenylao)pyrimidin-4-ylthio)phenyl)acrylamide], for which the values for the GI50 (in test [1]; at BaF3 TELJAK3 cells) were < 20 µM and < 5 µM, respectively. In the test on CTLL2, the IC50 was < 1 µM.
Taken in the same sequence, the figures for `N#Cc1nccc(Sc2ccc(Sc3ccnc(Nc4ccc(N5CCOCC5)cc4)n3)cc2)n1` [Compound 154, 4-(4-(2-(4-morpholinophenylao)pyrimidin-4-ylthio)phenylthio)pyrimidine-2-carbonitrile] were < 5 µM, < 5 µM and < 5 µM.
`C=CC(=O)Nc1ccc(Sc2ccnc(Nc3cccc(S(N)(=O)=O)c3)n2)cc1` [Compound 364, N-(4-(2-(3-sulfamoylphenylao)pyrimidin-4-ylthio)phenyl)acrylamide]: the GI50 in test [1] was < 5 µM; on BaF3 TELJAK3 cells, < 1 µM. Further, the IC50 in the test on CTLL2 is < 1 µM.
In the case of `C=CC(=O)Nc1ccc(Sc2nc(Nc3cccc(O)c3)ncc2C)cc1` [Compound 281, N-(4-(2-(3-hydroxyphenylao)-5-methylpyrimidin-4-ylthio)phenyl)acrylamide], the results for the GI50 (in test [1]; on BaF3 TELJAK3 cells) were < 20 µM and < 1 µM, respectively. The IC50 with CTLL2 was < 1 µM.
`O=C(Nc1ccc(Sc2ccnc(Nc3ccc(N4CCOCC4)cc3)n2)cc1)C1CC1(F)Cl` (stereo not drawn) [Compound 378, 2-chloro-2-fluoro-N-(4-(2-(4-morpholinophenylao)pyrimidin-4-ylthio)phenyl)cyclopropanecarboxamide]: the GI50 (in test [1]; at BaF3 TELJAK3 cells) was < 1 µM each time. Further, the IC50 in the test on CTLL2 was > 20 µM.
As to `C=CC(=O)Nc1ccc(Sc2ccnc(Nc3cccc([N+](=O)[O-])c3)n2)cc1` [Compound 361, N-(4-(2-(3-nitrophenylao)pyrimidin-4-ylthio)phenyl)acrylamide], the GI50 (in test [1]; on BaF3 TELJAK3 cells) was < 5 µM each time. Also, the IC50 with CTLL2 was > 20 µM.
Take `C=CC(=O)Nc1ccc(Sc2ccnc(Nc3ccccc3)n2)cc1` [Compound 350, N-(4-(2-(phenylao)pyrimidin-4-ylthio)phenyl)acrylamide]: the GI50 (in test [1]; on BaF3 TELJAK3 cells) was < 20 µM each time. Further, the IC50 in the test on CTLL2 was < 20 µM.
`C=CC(=O)Nc1ccc(Sc2ccnc(Nc3cccc(C(=O)OC)c3)n2)cc1` [Compound 356, methyl 3-(4-(4-acrylamidophenylthio)pyrimidin-2-ylao)benzoate]: the results for the GI50 (in test [1]; on BaF3 TELJAK3 cells) were < 20 µM and < 5 µM, respectively. Also, the IC50 in the test with CTLL2 is < 5 µM.
As for `C=C(CN1CCOCC1)C(=O)Nc1cccc(Sc2ccnc(Nc3ccc(N4CCOCC4)cc3)n2)c1` [Compound 328, 2-(morpholinomethyl)-N-(3-(2-(4-morpholinophenylao)pyrimidin-4-ylthio)phenyl)acrylamide], the values for the GI50 (in test [1]; at BaF3 TELJAK3 cells) were < 1 µM and < 5 µM, respectively. In addition, the IC50 in the test on CTLL2 was < 5 µM.
With `C=CC(=O)Nc1ccc(Sc2nc(Nc3ccc4c(c3)OCO4)ncc2C)cc1` [Compound 284, N-(4-(2-(benzo[d][1,3]dioxol-5-ylao)-5-methylpyrimidin-4-ylthio)phenyl)acrylamide], the GI50 was < 20 µM in test [1] and < 1 µM at BaF3 TELJAK3 cells. The IC50 with CTLL2 was < 1 µM.
Take `Cc1cnc(Nc2ccc(N3CCOCC3)cc2)nc1Sc1ccc(NC(=O)COCC(=O)O)cc1` [Compound 188, 2-(2-(4-(5-methyl-2-(4-morpholinophenylao)pyrimidin-4-ylthio)phenylao)-2-oxoethoxy)acetic acid]: the GI50 (in test [1]; on BaF3 TELJAK3 cells) was > 20 µM each time. The IC50 in the test on CTLL2 was > 20 µM.
For the compound `C=CC(=O)Nc1ccc(Sc2ccnc(Nc3ccc(N4CCC(N5CCCC5)CC4)cc3)n2)cc1` [Compound 87, N-(4-(2-(4-(4-(pyrrolidin-1-yl)piperidin-1-yl)phenylao)pyrimidin-4-ylthio)phenyl)acrylamide], the GI50 in test [1] was < 5 µM; at BaF3 TELJAK3 cells it was < 1 µM. For the same compound, in the test with CTLL2, the IC50 is < 1 µM.
With `C=CC(=O)Nc1ccc(Sc2nc(Nc3ccc(CNS(C)(=O)=O)cc3)ncc2C)cc1` [Compound 294, N-(4-(5-methyl-2-(4-(methylsulfonamidomethyl)phenylao)pyrimidin-4-ylthio)phenyl)acrylamide], the figures for the GI50 (in test [1]; on BaF3 TELJAK3 cells) were > 20 µM and < 1 µM, respectively. The IC50 with CTLL2 was < 1 µM.
Turning to `O=C(/C=C/Cl)Nc1ccc(Sc2ccnc(Nc3ccc(N4CCOCC4)cc3)n2)cc1` [Compound 342, (E)-3-chloro-N-(4-(2-(4-morpholinophenylao)pyrimidin-4-ylthio)phenyl)acrylamide], the GI50 in test [1] was > 20 µM; on BaF3 TELJAK3 cells, < 5 µM. For the same compound, in the test with CTLL2, the IC50 was < 20 µM.
Regarding `Cc1cnc(Nc2ccc(N3CCOCC3)cc2)nc1Sc1ccc(NC(=O)/C(Br)=C\C(=O)O)cc1` [Compound 381, (E)-3-bromo-4-(4-(5-methyl-2-(4-morpholinophenylao)pyrimidin-4-ylthio)phenylao)-4-oxobut-2-enoic acid], the GI50 in test [1] is > 20 µM; on BaF3 TELJAK3 cells it was < 20 µM. Moreover, in the test on CTLL2, the IC50 was < 20 µM.
